Key:
PI3Kα = PI3Kα (Homo sapiens (Human), UniProt P42336); details: read-out: PI3Kα AlphaScreen ® Ki
[1] = target: human mutant B-raf (HuBraf V600E) (Homo sapiens (Human), UniProt P15056, V600E); details: at 10 μM compound concentration; POC = 100 − percent inhibition
[2] = target: ProfilerPro Kinase Selectivity Assay Kit kinases (Homo sapiens, UniProt Q9BZL6); assay type: biochemical; details: PKD2; 1 μM compound concentration
[3] = target: ProfilerPro Kinase Selectivity Assay Kit kinases (Homo sapiens, UniProt P04049); assay type: biochemical; details: cRAF; 1 μM compound concentration
[4] = target: ProfilerPro Kinase Selectivity Assay Kit kinases (Homo sapiens, UniProt P23443); assay type: biochemical; details: p70S6K; 1 μM compound concentration
[5] = target: ProfilerPro Kinase Selectivity Assay Kit kinases (Homo sapiens, UniProt P49841); assay type: biochemical; details: GSK3 beta; 1 μM compound concentration
[6] = target: ProfilerPro Kinase Selectivity Assay Kit kinases (Homo sapiens, UniProt Q13976); assay type: biochemical; details: PKGa2; 1 μM compound concentration
[7] = target: ProfilerPro Kinase Selectivity Assay Kit kinases (Homo sapiens, UniProt P08581); assay type: biochemical; details: cMET; 1 μM compound concentration
Chain of ProfilerPro Kinase Selectivity Assay Kit kinases (Homo sapiens, UniProt P08581) (P08581 25-1390 limits assumed): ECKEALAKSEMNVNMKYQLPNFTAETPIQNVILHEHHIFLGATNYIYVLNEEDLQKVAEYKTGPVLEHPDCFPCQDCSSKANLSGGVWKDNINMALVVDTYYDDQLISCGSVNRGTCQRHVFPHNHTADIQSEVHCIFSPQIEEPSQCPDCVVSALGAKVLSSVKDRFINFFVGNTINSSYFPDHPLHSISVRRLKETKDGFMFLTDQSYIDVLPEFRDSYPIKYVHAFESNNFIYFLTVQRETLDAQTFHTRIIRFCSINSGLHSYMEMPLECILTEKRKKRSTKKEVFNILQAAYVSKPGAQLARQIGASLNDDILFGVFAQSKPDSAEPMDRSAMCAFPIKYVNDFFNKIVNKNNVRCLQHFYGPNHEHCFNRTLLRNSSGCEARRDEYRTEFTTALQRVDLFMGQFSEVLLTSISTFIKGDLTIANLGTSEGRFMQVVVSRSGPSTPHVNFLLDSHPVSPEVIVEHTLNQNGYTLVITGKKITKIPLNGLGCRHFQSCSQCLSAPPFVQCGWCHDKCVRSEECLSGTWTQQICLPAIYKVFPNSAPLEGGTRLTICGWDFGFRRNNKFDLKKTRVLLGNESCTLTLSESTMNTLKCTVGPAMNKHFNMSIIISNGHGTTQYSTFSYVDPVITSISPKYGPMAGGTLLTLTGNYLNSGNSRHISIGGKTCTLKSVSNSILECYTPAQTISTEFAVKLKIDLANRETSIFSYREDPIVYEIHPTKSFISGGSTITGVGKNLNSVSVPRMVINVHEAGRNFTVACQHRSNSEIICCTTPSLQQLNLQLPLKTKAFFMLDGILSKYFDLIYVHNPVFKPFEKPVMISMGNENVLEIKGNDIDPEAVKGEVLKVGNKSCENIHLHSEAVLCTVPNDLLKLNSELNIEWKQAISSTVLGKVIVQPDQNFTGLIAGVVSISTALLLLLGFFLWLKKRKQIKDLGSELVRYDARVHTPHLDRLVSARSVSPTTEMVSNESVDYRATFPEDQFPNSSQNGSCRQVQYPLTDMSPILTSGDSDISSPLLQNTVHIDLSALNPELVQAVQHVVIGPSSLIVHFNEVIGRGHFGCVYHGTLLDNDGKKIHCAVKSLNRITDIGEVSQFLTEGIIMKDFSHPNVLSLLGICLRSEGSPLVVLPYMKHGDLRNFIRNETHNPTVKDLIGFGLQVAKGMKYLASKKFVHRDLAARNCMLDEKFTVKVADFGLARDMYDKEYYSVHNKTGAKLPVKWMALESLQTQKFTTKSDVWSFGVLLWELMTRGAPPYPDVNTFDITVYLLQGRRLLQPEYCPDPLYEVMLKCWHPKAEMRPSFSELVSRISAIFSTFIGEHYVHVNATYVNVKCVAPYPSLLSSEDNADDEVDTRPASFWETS

[8] = target: ProfilerPro Kinase Selectivity Assay Kit kinases (Homo sapiens, UniProt O00141); assay type: biochemical; details: SGK1; 1 μM compound concentration
[9] = target: ProfilerPro Kinase Selectivity Assay Kit kinases (Homo sapiens, UniProt P11362); assay type: biochemical; details: FGFR1; 1 μM compound concentration
Chain of ProfilerPro Kinase Selectivity Assay Kit kinases (Homo sapiens, UniProt P11362) (P11362 22-822 limits assumed): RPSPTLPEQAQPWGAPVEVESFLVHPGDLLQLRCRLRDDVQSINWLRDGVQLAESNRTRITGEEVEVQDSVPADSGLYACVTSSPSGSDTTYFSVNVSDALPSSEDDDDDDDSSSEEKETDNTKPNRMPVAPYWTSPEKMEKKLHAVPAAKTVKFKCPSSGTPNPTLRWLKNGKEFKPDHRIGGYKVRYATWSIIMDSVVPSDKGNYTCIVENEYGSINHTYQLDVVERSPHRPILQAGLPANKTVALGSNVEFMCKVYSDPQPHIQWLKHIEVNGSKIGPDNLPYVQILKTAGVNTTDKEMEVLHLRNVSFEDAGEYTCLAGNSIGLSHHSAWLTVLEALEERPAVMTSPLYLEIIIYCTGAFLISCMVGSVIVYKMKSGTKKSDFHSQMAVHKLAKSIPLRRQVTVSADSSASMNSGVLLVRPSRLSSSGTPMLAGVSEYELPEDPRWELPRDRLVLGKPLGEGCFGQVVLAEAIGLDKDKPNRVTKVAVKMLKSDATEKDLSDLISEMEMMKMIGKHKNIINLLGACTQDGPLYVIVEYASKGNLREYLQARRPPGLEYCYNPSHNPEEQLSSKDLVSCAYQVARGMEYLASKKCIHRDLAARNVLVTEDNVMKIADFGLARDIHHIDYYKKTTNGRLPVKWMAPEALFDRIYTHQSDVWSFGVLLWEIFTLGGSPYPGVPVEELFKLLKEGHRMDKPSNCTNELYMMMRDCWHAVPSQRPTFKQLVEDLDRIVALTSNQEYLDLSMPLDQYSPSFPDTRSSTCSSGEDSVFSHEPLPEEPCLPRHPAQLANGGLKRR

[10] = target: ProfilerPro Kinase Selectivity Assay Kit kinases (Homo sapiens, UniProt P00519); assay type: biochemical; details: ABL; 1 μM compound concentration
[11] = target: ProfilerPro Kinase Selectivity Assay Kit kinases (Homo sapiens, UniProt P27361); assay type: biochemical; details: ERK1; 1 μM compound concentration
Chain of ProfilerPro Kinase Selectivity Assay Kit kinases (Homo sapiens, UniProt P27361) (P27361 2-379 limits assumed): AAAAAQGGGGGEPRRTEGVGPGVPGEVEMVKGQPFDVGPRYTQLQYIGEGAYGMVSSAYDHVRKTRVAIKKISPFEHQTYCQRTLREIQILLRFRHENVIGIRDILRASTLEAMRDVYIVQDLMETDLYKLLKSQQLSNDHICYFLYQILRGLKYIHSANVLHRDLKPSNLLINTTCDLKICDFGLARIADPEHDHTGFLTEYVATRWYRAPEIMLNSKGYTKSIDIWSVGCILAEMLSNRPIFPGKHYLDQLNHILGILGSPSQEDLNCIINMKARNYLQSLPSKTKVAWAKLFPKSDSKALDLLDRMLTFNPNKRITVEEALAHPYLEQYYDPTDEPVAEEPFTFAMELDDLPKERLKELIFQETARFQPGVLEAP

[12] = target: ProfilerPro Kinase Selectivity Assay Kit kinases (Homo sapiens, UniProt Q16539); assay type: biochemical; details: p38 alpha; 1 μM compound concentration
[13] = system: ProfilerPro Kinase Selectivity Assay Kit kinases; assay type: biochemical; details: 1 μM compound concentration
[14] = target: ProfilerPro Kinase Selectivity Assay Kit kinases (Homo sapiens, UniProt O75582); assay type: biochemical; details: MSK1; 1 μM compound concentration
[15] = system: phosphorylation of Akt at Serine 473 in U87 MG cells; assay: cells; details: Homo sapiens, U-87 MG, 2 h, read-out: U87Cell IC50, pAkt (Ser 473), U87 MG cells, two hours with compound

Chain of PI3Kα (P42336 whole entry): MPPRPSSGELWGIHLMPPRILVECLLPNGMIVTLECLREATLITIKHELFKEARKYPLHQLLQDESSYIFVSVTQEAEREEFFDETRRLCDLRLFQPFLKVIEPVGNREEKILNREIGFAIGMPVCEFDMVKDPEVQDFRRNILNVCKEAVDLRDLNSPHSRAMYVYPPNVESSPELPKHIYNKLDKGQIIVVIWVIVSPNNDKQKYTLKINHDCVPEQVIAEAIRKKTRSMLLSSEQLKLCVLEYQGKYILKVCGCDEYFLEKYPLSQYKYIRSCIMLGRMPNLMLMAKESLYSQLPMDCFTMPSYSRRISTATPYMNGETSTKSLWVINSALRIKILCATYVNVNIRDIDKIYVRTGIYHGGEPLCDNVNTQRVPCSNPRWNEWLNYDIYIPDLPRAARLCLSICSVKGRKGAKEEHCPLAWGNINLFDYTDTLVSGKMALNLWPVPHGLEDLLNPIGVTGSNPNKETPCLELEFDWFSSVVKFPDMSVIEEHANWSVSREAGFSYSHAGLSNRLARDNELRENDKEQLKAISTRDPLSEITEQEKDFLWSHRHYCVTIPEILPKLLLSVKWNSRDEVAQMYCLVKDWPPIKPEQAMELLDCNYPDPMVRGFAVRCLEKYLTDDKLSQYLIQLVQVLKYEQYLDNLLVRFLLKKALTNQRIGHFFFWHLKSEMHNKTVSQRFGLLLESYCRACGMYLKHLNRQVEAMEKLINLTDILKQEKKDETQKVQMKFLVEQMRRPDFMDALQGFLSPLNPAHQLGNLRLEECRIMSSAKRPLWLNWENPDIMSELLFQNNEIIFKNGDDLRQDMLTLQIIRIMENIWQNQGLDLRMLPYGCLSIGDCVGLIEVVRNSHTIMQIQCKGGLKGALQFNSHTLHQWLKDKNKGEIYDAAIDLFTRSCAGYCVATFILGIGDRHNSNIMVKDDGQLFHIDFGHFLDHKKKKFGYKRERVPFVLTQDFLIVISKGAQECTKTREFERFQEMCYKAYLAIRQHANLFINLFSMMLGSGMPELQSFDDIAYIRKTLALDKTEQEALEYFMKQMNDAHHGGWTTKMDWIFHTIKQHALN
Chain of PI3Kα (P27986 whole entry partner): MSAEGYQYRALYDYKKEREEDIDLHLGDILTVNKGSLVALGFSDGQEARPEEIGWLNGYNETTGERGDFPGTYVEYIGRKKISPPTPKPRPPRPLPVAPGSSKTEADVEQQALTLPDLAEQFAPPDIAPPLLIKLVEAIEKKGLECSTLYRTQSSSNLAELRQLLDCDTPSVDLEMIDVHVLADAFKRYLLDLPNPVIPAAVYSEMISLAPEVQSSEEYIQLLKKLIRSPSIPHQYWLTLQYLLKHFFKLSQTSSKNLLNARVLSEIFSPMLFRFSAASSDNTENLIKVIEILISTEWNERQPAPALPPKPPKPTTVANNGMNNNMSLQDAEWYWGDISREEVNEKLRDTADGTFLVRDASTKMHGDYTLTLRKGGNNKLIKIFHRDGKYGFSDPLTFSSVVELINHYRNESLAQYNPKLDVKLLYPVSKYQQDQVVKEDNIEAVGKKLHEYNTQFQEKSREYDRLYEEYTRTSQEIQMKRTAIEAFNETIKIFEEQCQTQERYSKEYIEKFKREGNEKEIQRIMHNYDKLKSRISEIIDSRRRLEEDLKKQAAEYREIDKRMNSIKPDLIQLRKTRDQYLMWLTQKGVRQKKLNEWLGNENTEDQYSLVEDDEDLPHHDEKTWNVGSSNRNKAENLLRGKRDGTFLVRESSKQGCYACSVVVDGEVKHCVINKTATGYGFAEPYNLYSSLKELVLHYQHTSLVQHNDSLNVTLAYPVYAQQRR
Chain of human mutant B-raf (HuBraf V600E) (P15056 whole entry V600E): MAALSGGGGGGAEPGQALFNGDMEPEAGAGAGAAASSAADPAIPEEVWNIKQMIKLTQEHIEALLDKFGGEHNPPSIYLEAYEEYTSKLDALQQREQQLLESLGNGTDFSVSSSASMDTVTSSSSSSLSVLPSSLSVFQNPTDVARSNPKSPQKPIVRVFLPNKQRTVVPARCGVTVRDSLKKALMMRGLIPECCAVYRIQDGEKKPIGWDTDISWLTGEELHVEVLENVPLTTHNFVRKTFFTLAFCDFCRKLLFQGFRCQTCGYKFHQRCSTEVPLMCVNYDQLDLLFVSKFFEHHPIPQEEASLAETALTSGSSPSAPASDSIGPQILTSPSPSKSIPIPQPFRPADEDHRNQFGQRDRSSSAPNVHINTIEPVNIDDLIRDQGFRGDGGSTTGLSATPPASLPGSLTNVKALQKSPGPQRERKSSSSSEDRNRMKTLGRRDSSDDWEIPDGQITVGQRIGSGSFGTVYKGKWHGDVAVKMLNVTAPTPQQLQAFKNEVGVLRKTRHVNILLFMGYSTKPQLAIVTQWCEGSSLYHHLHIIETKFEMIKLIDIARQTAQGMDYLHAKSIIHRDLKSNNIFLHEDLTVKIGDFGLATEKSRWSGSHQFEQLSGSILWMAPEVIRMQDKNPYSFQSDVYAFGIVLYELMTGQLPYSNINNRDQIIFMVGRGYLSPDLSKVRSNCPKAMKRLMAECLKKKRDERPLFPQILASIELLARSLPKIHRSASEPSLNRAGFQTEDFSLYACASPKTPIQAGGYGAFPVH

SMILES	Ki (PI3Kα) [µM]	Mutant B-raf HTRF Assay POC Mean n = 2 [1]	POC (Percent of control) PKD2 [2] [POC]	POC (Percent of control) cRAF [3] [POC]	POC (Percent of control) p70S6K [4] [POC]	POC (Percent of control) GSK3 beta [5] [POC]	POC (Percent of control) PKGa2 [6] [POC]	POC (Percent of control) cMET [7] [POC]	POC (Percent of control) SGK1 [8] [POC]	POC (Percent of control) FGFR1 [9] [POC]	POC (Percent of control) ABL [10] [POC]	POC (Percent of control) ERK1 [11] [POC]	POC (Percent of control) p38 alpha [12] [POC]	POC (Percent of control) AMPK [13] [POC]	POC (Percent of control) CAMK2 [13] [POC]	POC (Percent of control) PKC beta2 [13] [POC]	POC (Percent of control) TAK1 [13] [POC]	POC (Percent of control) MSK1 [14] [POC]	IC50 [15] [µM]
Cc1cnc(Nc2cccc3[nH]ccc23)c(-c2nc(C)nc(N)n2)c1 [Example 46, N-(3-(4-Amino-6-Methyl-1,3,5-Triazin-2-yl)-5-Methylpyridin-2-yl)-1H-Indol-4-Amine]	0.13	68% of Control (POC)	106	91	90	95	95	104	89	98	97	92	96	91	105	96	98	103	0.079
c1cnc(Nc2cccc3[nH]ccc23)c(-c2ncnc3[nH]cnc23)c1 [Example 19, N-(3-(9H-Purin-6-yl)Pyridin-2-yl)-1H-Indol-4-Amine]	5.62	7% of Control (POC)	97	56	91	79	93	89	88	51	19	93	86	57	84	94	90	106	2.37
COc1ccc(Nc2ncc(CN3CCN(C(C)=O)CC3)cc2-c2nc(C)nc3[nH]cnc23)cn1 [Example 89, 1-(4-((6-(6-methoxypyridin-3-ylamino)-5-(2-methyl-9H-purin-6-yl)pyridin-3-yl)methyl)piperazin-1-yl)ethanone]	0.042	102% of Control (POC)	100	99	89	100	87	102	92	97	107	100	100	91	108	94	93	91	0.146

Now those with a lower Ki (PI3Kα), led by results:

Ki (PI3Kα) [µM]	Mutant B-raf HTRF Assay POC Mean n = 2 [1]	POC (Percent of control) PKD2 [2] [POC]	POC (Percent of control) cRAF [3] [POC]	POC (Percent of control) p70S6K [4] [POC]	POC (Percent of control) GSK3 beta [5] [POC]	POC (Percent of control) PKGa2 [6] [POC]	POC (Percent of control) cMET [7] [POC]	POC (Percent of control) SGK1 [8] [POC]	POC (Percent of control) FGFR1 [9] [POC]	POC (Percent of control) ABL [10] [POC]	POC (Percent of control) ERK1 [11] [POC]	POC (Percent of control) p38 alpha [12] [POC]	POC (Percent of control) AMPK [13] [POC]	POC (Percent of control) CAMK2 [13] [POC]	POC (Percent of control) PKC beta2 [13] [POC]	POC (Percent of control) TAK1 [13] [POC]	POC (Percent of control) MSK1 [14] [POC]	IC50 [15] [µM]	SMILES
0.008	92% of Control (POC)	98	95	97	104	98	101	93	99	98	93	99	91	103	94	99	90	0.03	Cc1nc(N)nc(-c2cc(CN3CCN(S(C)(=O)=O)CC3)cnc2Nc2cccc(O)c2)n1 [Example 30, 3-(3-(4-Amino-6-Methyl-1,3,5-Triazin-2-yl)-5-((4-(Methyl Sulfonyl)Piperazin-1-yl)Methyl)Pyridin-2-Ylamino)Phenol]
0.036	91% of Control (POC)	113	56	60	97	80	102	89	94	81	103	91	87	126	100	106	76	0.197	Cc1cnc(Nc2cccc3[nH]ncc23)c(-c2nc(C)nc(N)n2)c1 [Example 47, N-(3-(4-Amino-6-Methyl-1,3,5-Triazin-2-yl)-5-Methylpyridine-2-yl)-1H-Indazol-4-Amine]
0.011	111% of Control (POC)	99	101	98	100	92	102	108	99	103	99	101	100	106	94	98	98	0.089	CCc1cnc(Nc2ccc(OC)nc2)c(-c2nc(C)nc3[nH]cnc23)c1 [Example 74, 5-ethyl-N-(6-methoxypyridin-3-yl)-3-(2-methyl-9H-purin-6-yl)pyridin-2-amine]

From US8772480B2, “Inhibitors of PI3 kinase and/or mTOR” (priority 2009, dated 2014)
